For one test, the system named is purple nutsedge. Kind of test: Test F post-emergence. It is filed as in vivo, Cyperus rotundus. The source says: Purple nutsedge tubers (Cyperus rotundus) were planted about 2 cm deep in Fallsington silt loam contained in plastic pots 10 cm in diameter. Five tubers were put in each pot. Compounds of this invention were sprayed dissolved in a non-phytotoxic solvent at a volume rate of 560 l/ha. in four different methods of treatment, i.e., soil surface spray, tuber/soil spray, soil incorporated and post-emergence. For the soil surface spray, the compounds were sprayed on the firmed soil surface immediately after planting. For the tuber/soil spray, the compounds were sprayed on the exposed tubers and subtending soil before the untreated covering soil was added. Soil incorporation treatments were mixed in the covering soil. Post-emergence treatments were sprayed on the nutsedge foliage and surrounding soil surface after the nutsedge had emerged and had reached the height of about 12 cm.
Immediately after spraying the surface spray, tuber/soil spray and soil incorporated treatments were misted with about 0.3 cm of water over a 90 minute period and then placed in the greenhouse. Post-emergence treatments were placed directly into the greenhouse and watered carefully so that treatments would not be washed from the foliage.

Test [1] concerns cassia. Nature of the test: Test A pre-emergence. Type of test: in vivo, Cassia tora. The following applies: 0.4 kg/ha. On the set-up: key: 0 = no effect, 10 = maximum effect; letter = response symbol. The source says: (§1) The activity of these compounds was discovered in a number of greenhouse and field tests. The ratings are based on a numerical scale extending from 0=no effect, to 10=maximum effect. The accompanying descriptive symbols have the following meanings:
(§2) Seeds of crabgrass (Digitaria spp.), barnyardgrass (Echinochloa crusgalli), wild oats (Avena fatua), cassia (Cassia tora), morningglory (Ipomoea spp.), cocklebur (Xanthium spp.), sorghum, corn, soybean, rice, wheat and nutsedge tubers (Cyperus rotundus) were planted in a growth medium and treated preemergence with a nonphytotoxic solvent solution of the compounds of Table XII. Other batches of seeds and tubers for all of the foregoing weed and crop plants were planted at the same time as controls. The control plantings were untreated; i.e., neither any compound nor any solvent was applied. At the same time, cotton having five leaves (including cotyledonary ones), bush beans with the third trifoliate leaf expanding, crabgrass with two leaves, barnyardgrass with two leaves, wild oats with two leaves, cassia with three leaves (including cotyledonary ones), morningglory with four leaves (including the cotyledonary ones), cocklebur with four leaves (including the cotyledonary ones), sorghum with four leaves, corn with four leaves, soybean with two cotyledonary leaves, rice with three leaves, wheat with one leaf, and nutsedge with three-five leaves were sprayed with a nonphytotoxic solvent solution of the compounds of Table XII. Other groups of all the same weed and crop plants were sprayed with the same nonphytotoxic solvent so as to provide control plants. Preemergence and postemergence treated plants and controls were maintained in a greenhouse for sixteen days, then all treated plants were compared with their respective controls and rated visually for response to treatment.

Test [2] deals with barnyardgrass. Nature of the test: Test A pre-emergence. It is filed as in vivo, Echinochloa crusgalli. On the set-up: key: 0 = no effect, 10 = maximum effect; letter = response symbol. The note with it: 0.4 kg/ha.
Text: as §1, §2

The test system of test [3] is wheat. Nature of the test: Test A pre-emergence. Type of test: in vivo. On the set-up: key: 0 = no effect, 10 = maximum effect; letter = response symbol. The note with it: 0.4 kg/ha.
Text: as §1, §2

A further test concerns soybean. Nature of the test: Test A pre-emergence. Also on record: key: 0 = no effect, 10 = maximum effect; letter = response symbol. The note with it: 0.4 kg/ha. Type of test: in vivo.
Text: as §1, §2

Test [4] has as its system cocklebur. Nature of the test: Test A pre-emergence. On the set-up: key: 0 = no effect, 10 = maximum effect; letter = response symbol. The following applies: 0.4 kg/ha. Type of test: in vivo, Xanthium spp.
Text: as §1, §2

Test [5] relates to morningglory. Kind of test: Test A pre-emergence. On the set-up: key: 0 = no effect, 10 = maximum effect; letter = response symbol. The note with it: 0.4 kg/ha. Type of test: in vivo, Ipomoea spp.
Text: as §1, §2

Test [6] relates to cocklebur. Nature of the test: Test A post-emergence. Also on record: key: 0 = no effect, 10 = maximum effect; letter = response symbol. Type of test: in vivo, Xanthium spp. The following applies: 0.4 kg/ha.
Text: as §1, §2

The next test relates to wild oats. Nature of the test: Test A post-emergence. It is filed as in vivo, Avena fatua. On the set-up: key: 0 = no effect, 10 = maximum effect; letter = response symbol.
Text: as §1, §2

Test [7] has as its system morningglory. Nature of the test: Test A post-emergence. Also on record: key: 0 = no effect, 10 = maximum effect; letter = response symbol. It is filed as in vivo, Ipomoea spp. The note with it: 0.4 kg/ha.
Text: as §1, §2

In test [8] the test system is wheat. Nature of the test: Test A post-emergence. It is filed as in vivo. Also on record: key: 0 = no effect, 10 = maximum effect; letter = response symbol.
Text: as §1, §2

A further test concerns bush bean. Nature of the test: Test A post-emergence. It is filed as in vivo, bush beans. On the set-up: key: 0 = no effect, 10 = maximum effect; letter = response symbol. The following applies: 0.4 kg/ha.
Test [9] relates to barnyardgrass. Kind of test: Test A post-emergence. It is filed as in vivo, Echinochloa crusgalli. Also on record: key: 0 = no effect, 10 = maximum effect; letter = response symbol.
Text: as §1, §2

The next test relates to nutsedge. Nature of the test: Test A post-emergence. It is filed as in vivo, Cyperus rotundus. Also on record: key: 0 = no effect, 10 = maximum effect; letter = response symbol. The following applies: 0.4 kg/ha.
Text: as §1, §2

A further test has as its system crabgrass. Kind of test: Test A post-emergence. It is filed as in vivo, Digitaria spp. The following applies: 0.4 kg/ha. Also on record: key: 0 = no effect, 10 = maximum effect; letter = response symbol.
Text: as §1, §2

The next test has as its system corn. Kind of test: Test A post-emergence. On the set-up: key: 0 = no effect, 10 = maximum effect; letter = response symbol. Type of test: in vivo. The following applies: 0.4 kg/ha.
Text: as §1, §2

Test [10] concerns cassia. Kind of test: Test A post-emergence. It is filed as in vivo, Cassia tora. On the set-up: key: 0 = no effect, 10 = maximum effect; letter = response symbol. The following applies: 0.4 kg/ha.
Text: as §1, §2

In the next test the test system is sorghum. Kind of test: Test A pre-emergence. On the set-up: key: 0 = no effect, 10 = maximum effect; letter = response symbol. The following applies: 0.4 kg/ha. It is filed as in vivo.
Text: as §1, §2

Regarding `COC(=O)c1ccccc1S(=O)(=O)NC(=O)Nc1nc(OC)nc(OC)n1` [drawing 595], the entries for the “response rating after 4 weeks” value in the test with purple nutsedge (.004 kg/ha), in the test with purple nutsedge (.008 kg/ha) and in the test on purple nutsedge (.032 kg/ha) were 0, 0 and 3G, respectively.

Take `COc1cc(C)nc(NC(=O)NS(=O)(=O)c2ccccc2C(=O)OC2CCOC2)n1` (stereo not shown) [drawing 513]: the response rating is given as 9G in the test with cassia [1]; 9H in the test with barnyardgrass [2]; 9H in the test on wheat [3]; 9H in the test with soybean; 9G with cocklebur [4]; 9G in the test with morningglory [5].

Consider `COc1nc(C)nc(NC(=O)NS(=O)(=O)c2ccccc2C(=O)OC(C)CCl)n1` (stereo not shown) [drawing 459], for which the response rating in the test on cocklebur [6] came out at 9C; in the test with wild oats (0.4 kg/ha) it was 3G; with morningglory [7] it was 10C; in the test with wheat [8] (0.4 kg/ha), 2G; in the test with bush bean, 9C.

As for `COc1cc(OC)nc(NC(=O)NS(=O)(=O)c2ccccc2C(=O)OC(C)C)n1` [drawing 602], the “response rating after 4 weeks” value with purple nutsedge (.008 kg/ha), with purple nutsedge (.032 kg/ha), with purple nutsedge (.125 kg/ha) and in the test on purple nutsedge (.25 kg/ha) was 10C each time.

Regarding `COC(=O)c1ccccc1S(=O)(=O)NC(=O)Nc1ncccn1` [drawing 418], the response rating in the test with barnyardgrass [9] (2 kg/ha) is listed as 9C; with wild oats (2 kg/ha), 2G; with wheat [8] (2 kg/ha) it was 5G.

`CCCCOC(=O)c1ccccc1S(=O)(=O)NC(=O)Nc1nc(C)cc(OC)n1` [drawing 599]: the “response rating after 4 weeks” value in the test on purple nutsedge (.125 kg/ha) was 8C.

Consider `CCC(C)OC(=O)c1ccccc1S(=O)(=O)NC(=O)Nc1nc(C)cc(OC)n1` (stereo not shown) [drawing 424], for which the response rating is on record as 9C in the test with cocklebur [6]; 8G with wild oats (0.4 kg/ha); 8G in the test on nutsedge; 0 in the test with crabgrass; 10C with morningglory [7].

With `COC(=O)c1ccccc1S(=O)(=O)NC(=O)Nc1nc(C)cc(OC)n1` [drawing 592], the “response rating after 4 weeks” value turned out to be 9C with purple nutsedge (.008 kg/ha), 9C in the test with purple nutsedge (.016 kg/ha), 10C in the test with purple nutsedge (.032 kg/ha) and 10C in the test on purple nutsedge (.064 kg/ha).

Take `COc1cc(C)nc(NC(=O)NS(=O)(=O)c2ccccc2C(=O)OC(C)C)n1` [drawing 601]: the “response rating after 4 weeks” value in the test on purple nutsedge (.008 kg/ha), in the test with purple nutsedge (.032 kg/ha), in the test with purple nutsedge (.125 kg/ha) and in the test on purple nutsedge (.25 kg/ha) was 10C throughout.

With `CCOC(=O)c1ccccc1S(=O)(=O)NC(=O)Nc1nc(OC)cc(OC)n1` [drawing 598], the “response rating after 4 weeks” value in the test on purple nutsedge (.008 kg/ha), with purple nutsedge (.032 kg/ha), in the test on purple nutsedge (.125 kg/ha) and with purple nutsedge (.25 kg/ha) was 10C each time.

As for `COc1cc(C)nc(NC(=O)NS(=O)(=O)c2ccccc2C(=O)CCC(C)C)n1` [drawing 449], the response rating with barnyardgrass [9] (0.4 kg/ha) was found to be 9C; with morningglory [7] it was 10C; with corn it was 9H; with bush bean, 10D.

Turning to `CCCCCCCCCCOC(=O)c1ccccc1S(=O)(=O)NC(=O)Nc1nc(C)cc(OC)n1` [drawing 428], the response rating is recorded as 5G in the test on cassia [10]; 5G in the test with wild oats (0.4 kg/ha); 7G in the test with nutsedge; 0 in the test with crabgrass; 3C with wheat [8] (0.4 kg/ha).

In the case of `COC(=O)c1cc(Cl)ccc1S(=O)(=O)NC(=O)Nc1nc(OC)cc(OC)n1` [drawing 605], the “response rating after 4 weeks” value in the test with purple nutsedge (.008 kg/ha), with purple nutsedge (.032 kg/ha) and with purple nutsedge (.125 kg/ha) was 10C throughout.

Regarding `COc1cc(C)nc(NC(=O)NS(=O)(=O)c2ccccc2C(=O)OCCOCCOCCCl)n1` [drawing 515], the response rating with cassia [1] stood at 9C; in the test on barnyardgrass [2] it was 9H; in the test with soybean, 9H; in the test with cocklebur [4], 9G; with morningglory [5] it was 9G.

As for `COC(=O)c1cc([N+](=O)[O-])ccc1S(=O)(=O)NC(=O)Nc1nc(C)cc(OC)n1` [drawing 462], the response rating is 9C in the test on cocklebur [6]; 9C in the test with cassia [10]; 9G in the test on nutsedge; 9C in the test with morningglory [7]; 9C in the test on bush bean.

As to `COC(=O)c1ccccc1S(=O)(=O)NC(=O)Nc1nc(C)nc(OC)n1` [drawing 594], the entries for the “response rating after 4 weeks” value in the test on purple nutsedge (.004 kg/ha), in the test on purple nutsedge (.008 kg/ha) and in the test on purple nutsedge (.016 kg/ha) were 0, 2G and 2G, respectively.

With `COc1nc(C)nc(NC(=O)NS(=O)(=O)c2ccccc2C(=O)OC(C)Cc2ccccc2)n1` (stereo not shown) [drawing 457], the response rating in the test on barnyardgrass [9] (0.4 kg/ha) came to 9C; in the test with cocklebur [6], 9C; with cassia [10], 10C; in the test on nutsedge it was 7G; in the test on crabgrass it was 9C; in the test with morningglory [7] it was 10C. For the same compound, the response rating in the test with corn and in the test on bush bean was 9C throughout.

Consider `CNC(=O)c1ccccc1S(=O)(=O)NC(=O)Nc1nc(C)cc(OC)n1` [drawing 533], for which the response rating with cassia [1] was 9G; in the test on wheat [3], 9H; in the test on soybean, 9H; with cocklebur [4], 9G.

As to `COC(=O)c1ccccc1S(=O)(=O)NC(=O)Nc1nc(OC)cc(OC)n1` [drawing 593], the “response rating after 4 weeks” value turned out to be 8C in the test with purple nutsedge (.004 kg/ha); 10C in the test with purple nutsedge (.008 kg/ha); 10C in the test on purple nutsedge (.016 kg/ha); 9C in the test with purple nutsedge (.032 kg/ha); 10C in the test with purple nutsedge (.064 kg/ha).

As for `COc1cc(C)nc(NC(=O)NS(=O)(=O)c2ccccc2C(=O)SC)n1` [drawing 544], the response rating with cassia [1] is recorded as 9G; with soybean it was 9H; in the test on sorghum, 9H; in the test with cocklebur [4], 9G; in the test on morningglory [5] it was 9G.

Regarding `COC(=O)c1ccccc1S(=O)(=O)NC(=O)Nc1nc(C)cc(C)n1` [drawing 591], the “response rating after 4 weeks” value in the test on purple nutsedge (.008 kg/ha) came out at 9C; with purple nutsedge (.016 kg/ha), 9C; in the test on purple nutsedge (.032 kg/ha), 10C; with purple nutsedge (.064 kg/ha), 10C.

In the case of `COc1nc(C)nc(NC(=O)NS(=O)(=O)c2ccccc2C(=O)OCc2ccc(Cl)cc2)n1` [drawing 460], the response rating was 2C in the test on wild oats (0.4 kg/ha), 0 in the test with nutsedge, 9C in the test with morningglory [7] and 0 in the test on wheat [8] (0.4 kg/ha).
